Consider eleven compounds from patent US9884063B2, “Amido-substituted azole compounds” (Bayer Pharma Aktiengesellschaft, priority 2014, dated 2018).

A value given as a limit tells only on which side of the number the result lay.

This test addresses T1, TNKS2 (Homo sapiens, UniProt Q9H2K2).
T1 sequence (Q9H2K2 1-1166): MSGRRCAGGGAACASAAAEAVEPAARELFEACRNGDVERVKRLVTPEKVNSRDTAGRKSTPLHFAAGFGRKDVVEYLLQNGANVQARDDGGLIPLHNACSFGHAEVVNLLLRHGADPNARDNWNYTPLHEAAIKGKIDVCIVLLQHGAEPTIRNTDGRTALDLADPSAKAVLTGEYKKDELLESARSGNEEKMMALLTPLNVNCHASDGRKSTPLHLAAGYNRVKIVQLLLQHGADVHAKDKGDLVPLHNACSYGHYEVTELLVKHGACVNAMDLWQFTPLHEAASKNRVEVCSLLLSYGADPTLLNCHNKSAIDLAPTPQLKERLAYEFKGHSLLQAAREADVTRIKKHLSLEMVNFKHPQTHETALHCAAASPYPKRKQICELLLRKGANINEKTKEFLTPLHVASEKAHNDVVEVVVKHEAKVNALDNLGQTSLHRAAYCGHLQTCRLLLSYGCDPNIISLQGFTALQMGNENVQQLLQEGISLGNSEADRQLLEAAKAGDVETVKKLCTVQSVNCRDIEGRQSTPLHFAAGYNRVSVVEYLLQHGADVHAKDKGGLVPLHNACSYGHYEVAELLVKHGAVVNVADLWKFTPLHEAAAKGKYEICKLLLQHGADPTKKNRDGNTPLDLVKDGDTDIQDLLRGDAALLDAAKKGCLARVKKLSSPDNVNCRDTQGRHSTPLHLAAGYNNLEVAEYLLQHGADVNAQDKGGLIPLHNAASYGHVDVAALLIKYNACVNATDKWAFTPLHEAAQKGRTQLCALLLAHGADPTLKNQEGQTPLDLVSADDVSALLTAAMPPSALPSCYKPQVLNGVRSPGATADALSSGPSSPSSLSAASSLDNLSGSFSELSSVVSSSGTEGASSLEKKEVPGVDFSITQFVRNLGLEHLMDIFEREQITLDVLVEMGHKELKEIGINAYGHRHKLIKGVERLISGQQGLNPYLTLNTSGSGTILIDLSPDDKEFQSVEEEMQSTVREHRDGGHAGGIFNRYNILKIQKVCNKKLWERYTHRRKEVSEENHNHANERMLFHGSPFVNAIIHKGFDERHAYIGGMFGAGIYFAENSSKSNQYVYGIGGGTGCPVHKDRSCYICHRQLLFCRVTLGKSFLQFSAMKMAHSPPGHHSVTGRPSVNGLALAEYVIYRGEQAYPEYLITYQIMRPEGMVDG
Nature of the test: Modified TNKS2 Assay 3 (BPS kit #80578, biotin-NAD+, 96 well). The settings on record: human TNKS2, BPS kit #80578, 96 well. It counts as biochemical. The essentials:
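Commercial kit assay measuring TNKS2-catalysed incorporation of biotin-labelled NAD+ into a protein substrate, detected by streptavidin-HRP chemiluminescence. Run per manufacturer's protocol; IC50 is the concentration halving the normalised signal.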
On to `CC(CN1CCOCC1)NC(=O)c1[nH]cnc1C(=O)Nc1ccc(NC(=O)c2ccc(F)cc2Cl)cc1` (single isomer, unassigned; enantiomer 2) [Example 270, N^4-{4-[(2-chloro-4-fluorobenzoyl)amino]phenyl}-N^5-[1-(morpholin-4-yl)propan-2-yl]-1H-imidazole-4,5-dicarboxamide (enantiomer 2)], for which the half-maximal inhibitory concentration (IC50) amounted to 10 nM. `CN(C)CCNC(=O)c1nc[nH]c1C(=O)Nc1ccc(NC(=O)c2ccc(F)cc2Cl)cc1` [Example 22, N^4-{4-[(2-chloro-4-fluorobenzoyl)amino]phenyl}-N^5-[2-(dimethylamino)ethyl]-1H-imidazole-4,5-dicarboxamide] registered a half-inhibitory concentration (IC50) of 10 nM. In turn, `O=C(Nc1ccc(NC(=O)c2[nH]cnc2C(=O)NCCN2CCCCC2)cc1)c1ccc(F)cc1Cl` [Example 32, N^4-{4-[(2-chloro-4-fluorobenzoyl)amino]phenyl}-N^5-[2-(piperidin-1-yl)ethyl]-1H-imidazole-4,5-dicarboxamide] gave a 50% inhibitory concentration (IC50) of 1 nM. Then `O=C(Nc1ccc(NC(=O)c2[nH]cnc2C(=O)NC2CC2)cc1)c1cc(F)c(F)cc1Cl` [Example 51, N^5-{4-[(2-chloro-4,5-difluorobenzoyl)amino]phenyl}-N^4-cyclopropyl-1H-imidazole-4,5-dicarboxamide], with 10 nM; and `O=C(Nc1ccc(NC(=O)c2[nH]cnc2C(=O)N2CC3(COC3)C2)cc1)c1cc(F)c(F)cc1Cl` [Example 52, N-{4-[(2-chloro-4,5-difluorobenzoyl)amino]phenyl}-4-(2-oxa-6-azaspiro[3.3]hept-6-ylcarbonyl)-1H-imidazole-5-carboxamide], with 250 nM; and `CNC(=O)c1nc[nH]c1C(=O)Nc1ccc(NC(=O)c2ccc(S(C)(=O)=O)cc2Cl)cc1` [Example 55, N^5-(4-{[2-chloro-4-(methylsulfonyl)benzoyl]amino}phenyl)-N^4-methyl-1H-imidazole-4,5-dicarboxamide], with 10 nM. Then `CNC(=O)c1nc[nH]c1C(=O)Nc1ccc(NC(=O)c2ccc(F)cc2Br)cc1` [Example 56, N^5-{4-[(2-bromo-4-fluorobenzoyl)amino]phenyl}-N^4-methyl-1H-imidazole-4,5-dicarboxamide], with 60 nM; and `CNC(=O)c1nc[nH]c1C(=O)Nc1ccc(NC(=O)c2ccc(F)cc2I)cc1` [Example 61, N^5-{4-[(4-fluoro-2-iodobenzoyl)amino]phenyl}-N^4-methyl-1H-imidazole-4,5-dicarboxamide], with 3 nM. The figure for `Cc1nc(C(=O)Nc2ccc(NC(=O)c3ccc(F)cc3Cl)cc2)c(C(=O)NCCN2CCCCC2)[nH]1` [Example 67, N^4-{4-[(2-chloro-4-fluorobenzoyl)amino]phenyl}-2-methyl-N^5-[2-(piperidin-1-yl)ethyl]-1H-imidazole-4,5-dicarboxamide] is 5 nM; for `C[C@@H]1CCCCN1CCNC(=O)c1[nH]cnc1C(=O)Nc1ccc(NC(=O)c2ccc(F)cc2Cl)cc1` [Example 267, N^4-{4-[(2-chloro-4-fluorobenzoyl)amino]phenyl}-N^5-{2-[(2R)-2-methylpiperidin-1-yl]ethyl}-1H-imidazole-4,5-dicarboxamide] it is under 0.5 nM; for `C[C@@H]1CCCN(CCNC(=O)c2[nH]cnc2C(=O)Nc2ccc(NC(=O)c3ccc(F)cc3Cl)cc2)C1` [Example 278, N^4-{4-[(2-chloro-4-fluorobenzoyl)amino]phenyl}-N^5-{2-[(3R)-3-methylpiperidin-1-yl]ethyl}-1H-imidazole-4,5-dicarboxamide] it is 1 nM.
